The term IC50 denotes the point on the concentration scale where inhibition reaches its midpoint.

These results are taken from patent US11292796B2 (SIGNAL PHARMACEUTICALS, LLC, priority 2008, dated 2022).

This assay concerns the target T1, mTOR (Homo sapiens, UniProt P42345).
T1 construct: purchased Invitrogen PR8683A
Description: mTOR HTR-FRET assay. In kind it is biochemical. The settings on record: read-out: Act. Level (IC50 in mTor HTR-FRET assay). Summed up:
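Test compounds, taken from 10 mM DMSO stocks and diluted, were mixed with mTOR enzyme (0.200 μg/mL) in Tris buffer pH 7.4 with 100 mM NaCl, 0.1% Tween-20 and 1 mM DTT. ATP/substrate addition initiated the reaction, alongside compound-free controls.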

T1 sequence (P42345 1360-2549 limits assumed): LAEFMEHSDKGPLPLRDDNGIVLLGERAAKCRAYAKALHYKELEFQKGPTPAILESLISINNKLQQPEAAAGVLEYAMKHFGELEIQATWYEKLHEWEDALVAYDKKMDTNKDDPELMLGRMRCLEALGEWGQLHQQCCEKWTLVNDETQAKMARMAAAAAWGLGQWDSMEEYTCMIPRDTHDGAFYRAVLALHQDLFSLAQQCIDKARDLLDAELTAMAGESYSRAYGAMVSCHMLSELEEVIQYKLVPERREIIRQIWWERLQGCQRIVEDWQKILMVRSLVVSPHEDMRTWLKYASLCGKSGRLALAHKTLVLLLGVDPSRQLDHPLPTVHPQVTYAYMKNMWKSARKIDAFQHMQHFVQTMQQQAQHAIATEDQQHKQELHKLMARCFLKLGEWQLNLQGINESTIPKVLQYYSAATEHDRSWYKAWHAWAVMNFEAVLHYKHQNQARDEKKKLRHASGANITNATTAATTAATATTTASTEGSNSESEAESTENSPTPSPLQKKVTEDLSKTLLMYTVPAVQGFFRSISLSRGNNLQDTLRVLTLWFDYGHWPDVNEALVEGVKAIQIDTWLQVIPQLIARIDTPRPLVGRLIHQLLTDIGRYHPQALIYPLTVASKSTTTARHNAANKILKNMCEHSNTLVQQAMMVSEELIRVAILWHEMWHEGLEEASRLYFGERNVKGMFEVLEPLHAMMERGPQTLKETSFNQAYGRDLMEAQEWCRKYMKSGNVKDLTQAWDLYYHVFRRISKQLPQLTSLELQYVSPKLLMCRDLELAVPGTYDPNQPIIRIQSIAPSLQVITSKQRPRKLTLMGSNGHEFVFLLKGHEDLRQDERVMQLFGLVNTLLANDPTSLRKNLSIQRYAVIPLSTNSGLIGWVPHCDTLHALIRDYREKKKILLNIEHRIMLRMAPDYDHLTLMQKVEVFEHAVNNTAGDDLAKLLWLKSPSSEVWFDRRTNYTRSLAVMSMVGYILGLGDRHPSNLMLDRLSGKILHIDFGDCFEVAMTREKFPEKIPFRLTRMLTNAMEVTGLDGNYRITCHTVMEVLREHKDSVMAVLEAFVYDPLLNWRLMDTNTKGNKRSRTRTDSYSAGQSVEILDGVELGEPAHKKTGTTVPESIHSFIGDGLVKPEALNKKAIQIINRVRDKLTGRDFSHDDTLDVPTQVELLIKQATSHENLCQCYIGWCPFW

Turning to `COc1ccc(-c2cnc3c(n2)N(CCC2CCOCC2)C(=O)CN3)cn1` [Example 191, 7-(6-methoxypyridin-3-yl)-1-(2-(tetrahydro-2H-pyran-4-yl)ethyl)-3,4-dihydropyrazino[2,3-b]pyrazin-2(1H)-one], the IC50 lay within 500 to 1000 nM.

With `COCCN1C(=O)CNc2ncc(-c3cnc4[nH]ccc4c3)nc21` [Example 192, 1-(2-methoxyethyl)-7-(1H-pyrrolo[2,3-b]pyridin-5-yl)-3,4-dihydropyrazino[2,3-b]pyrazin-2(1H)-one], the IC50 lay within 0.005 to 250 nM.

`CCN1C(=O)CNc2ncc(-c3cnc4[nH]ccc4c3)nc21` [Example 193, 1-ethyl-7-(1H-pyrrolo[2,3-b]pyridin-5-yl)-3,4-dihydropyrazino[2,3-b]pyrazin-2(1H)-one]: the IC50 was in the range of 250 to 500 nM.

In the case of `CCN1C(=O)CNc2ncc(-c3cccc4[nH]ncc34)nc21` [Example 194, 1-ethyl-7-(1H-indazol-4-yl)-3,4-dihydropyrazino[2,3-b]pyrazin-2(1H)-one], the IC50 is 1000 to 10000 nM.

As to `O=C1CNc2ncc(-c3ccncc3)nc2N1CCC1CCOCC1` [Example 195, 7-(pyridin-4-yl)-1-(2-(tetrahydro-2H-pyran-4-yl)ethyl)-3,4-dihydropyrazino[2,3-b]pyrazin-2(1H)-one], the IC50 was in the range of 1000 to 10000 nM.

`Nc1ccc(-c2cnc3c(n2)N(CCC2CCOCC2)C(=O)CN3)cn1` [Example 196, 7-(6-aminopyridin-3-yl)-1-(2-(tetrahydro-2H-pyran-4-yl)ethyl)-3,4-dihydropyrazino[2,3-b]pyrazin-2(1H)-one]: the IC50 was in the range of 0.005 to 250 nM.

On to `Cc1nc(-c2nnc[nH]2)ccc1-c1cnc2c(n1)N(C)C(=O)CN2` [Example 197, 1-methyl-7-(2-methyl-6-(4H-1,2,4-triazol-3-yl)pyridin-3-yl)-3,4-dihydropyrazino[2,3-b]pyrazin-2(1H)-one], for which the IC50 fell in the range of 0.005 to 250 nM.

On to `CO[C@H]1CC[C@H](N2C(=O)CNc3ncc(-c4ccc(C(C)(C)O)[n+]([O-])c4)nc32)CC1` [Example 198, 2-(2-hydroxypropan-2-yl)-5-(8-(trans-4-methoxycyclohexyl)-7-oxo-5,6,7,8-tetrahydropyrazino[2,3-b]pyrazin-2-yl)pyridine 1-oxide], for which the IC50 was 1000 to 10000 nM.

As for `Cc1cc(C(N)=O)ncc1-c1cnc2c(n1)N(CC1CCOCC1)C(=O)CN2` [Example 199, 4-methyl-5-(7-oxo-8-((tetrahydro-2H-pyran-4-yl)methyl)-5,6,7,8-tetrahydropyrazino[2,3-b]pyrazin-2-yl)picolinamide], the IC50 lay in the range of 1000 to 10000 nM.

For `CO[C@H]1CC[C@@H](CN2C(=O)CNc3ncc(-c4cnc(C(N)=O)cc4C)nc32)CC1` [Example 200, 5-(8-((cis-4-methoxycyclohexyl)methyl)-7-oxo-5,6,7,8-tetrahydropyrazino[2,3-b]pyrazin-2-yl)-4-methylpicolinamide], the IC50 lay in the range of 1000 to 10000 nM.

For `O=C1CNc2ncc(-c3cn[nH]c3)nc2N1CCC1CCOCC1` [Example 201, 7-(1H-pyrazol-4-yl)-1-(2-(tetrahydro-2H-pyran-4-yl)ethyl)-3,4-dihydropyrazino[2,3-b]pyrazin-2(1H)-one], the IC50 lay in the range of 1000 to 10000 nM.

`CO[C@H]1CC[C@H](N2C(=O)CNc3ncc(-c4cnc(-c5nc[nH]n5)cc4C)nc32)CC1` [Example 202, 1-(trans-4-methoxycyclohexyl)-7-(4-methyl-6-(1H-1,2,4-triazol-3-yl)pyridin-3-yl)-3,4-dihydropyrazino[2,3-b]pyrazin-2(1H)-one]: the IC50 lay within 0.005 to 250 nM.

For `Cc1nc(-c2nnc[nH]2)ccc1-c1cnc2c(n1)N(Cc1cccc(C#N)c1)C(=O)CN2` [Example 203, 3-((7-(2-methyl-6-(4H-1,2,4-triazol-3-yl)pyridin-3-yl)-2-oxo-3,4-dihydropyrazino[2,3-b]pyrazin-1(2H)-yl)methyl)benzonitrile], the concentration for half-maximal inhibition (IC50) is 0.005 to 250 nM.
